# Measured values as given in patent US10287255B2, “Compounds as histone deacetylase 6 inhibitors and pharmaceutical compositions comprising the same” (CHONG KUN DANG PHARMACEUTICAL CORP., priority 2014, dated 2019).
# Assays:
# human recombinant HDAC1 = target: T1, human recombinant HDAC1 (Homo sapiens, UniProt Q13547); assay: HDAC1 enzyme activity inhibition assay (in vitro, fluorimetric); assay type: biochemical; conditions: human recombinant HDAC1, fluorimetric kit, 30° C. 60 minutes
# T1 construct: purchased Enzo Life Science BML-SE456
# T1 sequence (Q13547 whole entry): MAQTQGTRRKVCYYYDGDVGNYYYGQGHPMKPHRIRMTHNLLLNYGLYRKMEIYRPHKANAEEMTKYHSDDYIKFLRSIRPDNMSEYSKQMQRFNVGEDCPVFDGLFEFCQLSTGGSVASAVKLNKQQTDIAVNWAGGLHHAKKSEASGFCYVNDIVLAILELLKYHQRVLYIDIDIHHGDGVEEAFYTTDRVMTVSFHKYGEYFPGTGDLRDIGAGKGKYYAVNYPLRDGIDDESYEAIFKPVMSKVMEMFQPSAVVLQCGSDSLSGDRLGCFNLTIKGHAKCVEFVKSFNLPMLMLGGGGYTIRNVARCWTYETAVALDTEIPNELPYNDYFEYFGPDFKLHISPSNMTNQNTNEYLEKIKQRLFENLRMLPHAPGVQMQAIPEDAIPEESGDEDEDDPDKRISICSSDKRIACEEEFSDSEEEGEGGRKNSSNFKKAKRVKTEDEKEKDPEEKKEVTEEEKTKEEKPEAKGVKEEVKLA
# Protocol: (§1) In order to examine the HDAC6 selectivity of the compounds of formula 1 of the present invention by HDAC1 and HDAC6 enzymatic activity inhibition assays, an experiment was performed using a conventional substance as a control.
# (§2) HDAC enzyme activity was measured using a HDAC Fluorimetric Drug Discovery Kit (BML-AK511, 516, Enzo Life Science). For the HDAC1 enzyme activity test, human recombinant HDAC1 (BML-SE456) was used as an enzyme source, and Fluor de Lys®-“SIRT1 (BNL-KI177) was used as a substrate. A 5-fold dilution of the compound was seeded into a 96-well plate, and then 0.3 μg of the enzyme and 10 μM of the substrate were added to each well of the plate and allowed to react at 30° C. for 60 minutes. Then, Fluor de Lys® Developer II (BML-KI176) was added thereto and allowed to react for 30 minutes, after which the fluorescence value (Ex 360, Em 460) was measured using a multi-plate reader (Flexstation 3, Molecular Device). The HDAC6 enzyme was tested using human recombinant HDAC6 (382180) (Calbiochem) according to the same protocol as the HDAC1 enzyme activity test method. Based on the resulting values, each IC50 value was calculated using GraphPad Prism4.0 program.
# human recombinant HDAC6 = target: T2, human recombinant HDAC6 (Homo sapiens, UniProt Q9UBN7); assay: HDAC6 enzyme activity inhibition assay (in vitro, fluorimetric); assay type: biochemical; conditions: for HDAC6 selectivity (fold): HDAC6 selectivity over HDAC1; for IC50: human recombinant HDAC6, fluorimetric kit, same protocol as HDAC1
# T2 construct: purchased Calbiochem 382180
# T2 sequence (Q9UBN7 1-1215): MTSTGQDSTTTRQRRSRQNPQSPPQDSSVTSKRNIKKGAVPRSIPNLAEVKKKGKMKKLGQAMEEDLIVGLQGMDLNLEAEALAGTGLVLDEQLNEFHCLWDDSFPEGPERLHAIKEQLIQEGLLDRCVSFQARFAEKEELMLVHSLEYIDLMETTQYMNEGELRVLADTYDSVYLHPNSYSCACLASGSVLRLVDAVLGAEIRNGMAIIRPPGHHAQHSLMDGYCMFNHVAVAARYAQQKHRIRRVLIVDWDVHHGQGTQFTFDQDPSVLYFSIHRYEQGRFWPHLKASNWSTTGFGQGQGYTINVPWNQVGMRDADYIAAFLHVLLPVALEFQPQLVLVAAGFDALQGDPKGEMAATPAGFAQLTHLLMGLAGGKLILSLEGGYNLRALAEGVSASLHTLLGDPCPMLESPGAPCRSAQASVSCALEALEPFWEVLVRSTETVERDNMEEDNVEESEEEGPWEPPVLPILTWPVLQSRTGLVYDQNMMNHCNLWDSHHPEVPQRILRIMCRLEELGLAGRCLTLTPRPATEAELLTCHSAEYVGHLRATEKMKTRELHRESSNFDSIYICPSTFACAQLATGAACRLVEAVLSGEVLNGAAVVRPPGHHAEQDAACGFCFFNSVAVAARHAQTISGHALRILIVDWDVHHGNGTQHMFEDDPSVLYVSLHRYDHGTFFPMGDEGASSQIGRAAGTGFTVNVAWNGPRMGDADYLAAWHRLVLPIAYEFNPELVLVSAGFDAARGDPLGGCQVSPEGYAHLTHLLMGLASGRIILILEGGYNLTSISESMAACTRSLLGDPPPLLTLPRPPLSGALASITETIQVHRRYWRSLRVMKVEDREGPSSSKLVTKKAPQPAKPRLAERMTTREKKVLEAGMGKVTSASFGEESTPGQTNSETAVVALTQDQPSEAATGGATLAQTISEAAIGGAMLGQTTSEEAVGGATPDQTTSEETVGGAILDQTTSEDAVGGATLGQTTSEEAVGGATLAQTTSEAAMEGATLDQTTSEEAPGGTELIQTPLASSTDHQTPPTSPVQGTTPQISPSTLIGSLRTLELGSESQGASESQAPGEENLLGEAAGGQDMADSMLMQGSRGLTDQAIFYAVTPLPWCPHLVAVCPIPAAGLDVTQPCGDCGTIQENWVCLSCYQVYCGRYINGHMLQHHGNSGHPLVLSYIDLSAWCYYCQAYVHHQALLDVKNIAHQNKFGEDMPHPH
# Protocol: as §1, §2
SMILES,IC50 (human recombinant HDAC1),HDAC6 selectivity (fold) (human recombinant HDAC6),IC50 (human recombinant HDAC6)
"C[C@@H]1CN(C(=O)c2cccnc2)C[C@H](C)N1Cc1ccc(C(=O)NO)cc1 [Compound 112, 4-(((2S,6R)-2,6-dimethyl-4-nicotinoylpiperazin-1-yl)methyl)-N-hydroxybenzamide]",> 10000 nM,>65 fold,154 nM
"C[C@@H]1CN(S(=O)(=O)c2cccnc2)C[C@H](C)N1Cc1ccc(C(=O)NO)cc1 [Compound 113, 4-(((2S,6R)-2,6-dimethyl-4-(pyridin-3-ylsulfonyl)piperazin-1-yl)methyl)-N-hydroxybenzamide]",2800 nM,27 fold,104 nM
"C[C@@H]1CN(C(=O)c2cccs2)C[C@H](C)N1Cc1ccc(C(=O)NO)cc1 [Compound 114, 4-(((2S,6R)-2,6-dimethyl-4-(thiophene-2-carbonyl)piperazin-1-yl)methyl)-N-hydroxybenzamide]",2400 nM,13 fold,185 nM
"C[C@@H]1CN(C(=O)c2ccco2)C[C@H](C)N1Cc1ccc(C(=O)NO)cc1 [Compound 115, 4-(((2S,6R)-4-(furan-2-carbonyl)-2,6-dimethylpiperazin-1-yl)methyl)-N-hydroxybenzamide]",3200 nM,18 fold,181 nM
"C[C@@H]1CN(Cc2ccccc2Cl)C[C@H](C)N1Cc1ccc(C(=O)NO)cc1 [Compound 118, 4-(((2S,6R)-4-(2-chlorobenzyl)-2,6-dimethylpiperazin-1-yl)methyl)-N-hydroxybenzamide]",5500 nM,48 fold,113 nM
"C[C@@H]1CN(c2ccc(F)cc2)C[C@H](C)N1Cc1ccc(C(=O)NO)cc1 [Compound 119, 4-(((2S,6R)-4-(4-fluorophenyl)-2,6-dimethylpiperazin-1-yl)methyl)-N-hydroxybenzamide]",8200 nM,26 fold,309 nM
"C[C@@H]1CN(Cc2ccc(C(=O)NO)cc2)C[C@H](C)N1C(=O)c1ccccc1Cl [Compound 120, 4-(((3R,5S)-4-(2-chlorobenzoyl)-3,5-dimethylpiperazin-1-yl)methyl)-N-hydroxybenzamide]",5500 nM,304 fold,18 nM
"C[C@@H]1CN(Cc2ccc(C(=O)NO)cc2)C[C@H](C)N1C(=O)c1cccc(Cl)c1 [Compound 121, 4-(((3R,5S)-4-(3-chlorobenzoyl)-3,5-dimethylpiperazin-1-yl)methyl)-N-hydroxybenzamide]",11800 nM,407 fold,29 nM
"C[C@@H]1CN(Cc2ccc(C(=O)NO)cc2)C[C@H](C)N1C(=O)c1ccc(Cl)cc1 [Compound 122, 4-(((3R,5S)-4-(4-chlorobenzoyl)-3,5-dimethylpiperazin-1-yl)methyl)-N-hydroxybenzamide]",3600 nM,717 fold,5 nM
"C[C@@H]1CN(Cc2ccc(C(=O)NO)cc2)C[C@H](C)N1C(=O)c1ccccn1 [Compound 123, 4-(((3R,5S)-3,5-dimethyl-4-picolinoylpiperazin-1-yl)methyl)-N-hydroxybenzamide]",15500 nM,2584 fold,6 nM
"C[C@@H]1CN(Cc2ccc(C(=O)NO)cc2)C[C@H](C)N1C(=O)c1ccco1 [Compound 125, 4-(((3R,5S)-4-(furan-2-carbonyl)-3,5-dimethylpiperazin-1-yl)methyl)-N-hydroxybenzamide]",> 10000 nM,>3333 fold,3 nM
"C[C@@H]1CN(Cc2ccc(C(=O)NO)cc2)C[C@H](C)N1C(=O)c1cccs1 [Compound 126, 4-(((3R,5S)-3,5-dimethyl-4-(thiophene-2-carbonyl)piperazin-1-yl)methyl)-N-hydroxybenzamide]",6100 nM,1525 fold,4 nM
